From publication PMC6155222, “3-Substituted N-Benzylpyrazine-2-carboxamide Derivatives: Synthesis, Antimycobacterial and Antibacterial Evaluation” (Molecules : A Journal of Synthetic Chemistry and Natural …, 2017)
Values after ≈ are worked out from the molar mass of the structure shown. Read-outs that look alike come from different tables or passages of the source.

Experiments:
[1] = system: Mycobacterium tuberculosis H37Rv; experiment: Microplate Alamar Blue Assay (MABA), microdilution panel method; assay type: cell-based
[2] = system: Mycobacterium smegmatis CCM 4622 (ATCC 607); experiment: Antimycobacterial screening, microdilution broth panel method with resazurin; assay type: cell-based; settings: Mycolicibacterium smegmatis, 48 h + 4 h
Method: An antimycobacterial assay was performed with fast growing Mycobacterium smegmatis CCM 4622 (ATCC 607) from the Czech Collection of Microorganisms (Brno, Czech Republic). The technique used for activity determination was a microdilution broth panel method using 96-well microtitration plates. The culturing medium was Middlebrook 7H9 (MB) broth (Sigma-Aldrich), enriched with 0.4% of glycerol (Sigma-Aldrich) and 10% of Middlebrook OADC growth supplement (Himedia, Mumbai, India). Tested compounds were dissolved in DMSO (Sigma-Aldrich), and the MB broth was then added to obtain a concentration of 2000 μg·mL^−1. Standards used for activity determination were isoniazid (INH), rifampicin (RIF), and ciprofloxacin (CPX) (Sigma-Aldrich). Final concentrations were reached by binary dilution and the addition of mycobacterial suspension, and were set as 500, 250, 125, 62.5, 31.25, 15.625, 7.81, and 3.91 μg·mL^−1, except for the standards of ciprofloxacin and rifampicin, where the final concentrations were 12.5, 6.25, 3.125, 1.56, 0.78, 0.39, 0.195, and 0.098 μg·mL^−1. […] Plates were also sealed with polyester adhesive film and incubated in the dark at 37 °C, without agitation. The addition of 0.01% solution of resazurin sodium salt followed after 48 h. This stain was prepared by dissolving resazurin sodium salt (Sigma-Aldrich) in deionised water, producing a 0.02% solution. Then, a 10% aqueous solution of Tween 80 (Sigma-Aldrich) was prepared. Both liquids were mixed up making use of the same volumes and filtered through a syringe membrane filter. Microtitration panels were then incubated for a further 4 h. Antimycobacterial activity was expressed as the minimal inhibition concentration (MIC) and the value was read on the basis of stain colour change (blue colour—active compound; pink colour—not active compound). […] All experiments were conducted in duplicate.

[3] = Determination of lipophilicity by RP-HPLC (log k); settings: RP-HPLC capacity factor, MeOH 70% / H2O 30%, C18, 30 °C
Method: Log k was determined using an Agilent Technologies 1200 SL liquid chromatograph with Diode-array Detector SL G1315C (Agilent Technologies Inc., Colorado Springs, CO, USA), with pre-column ZORBAX XDB-C18 5 μm, 4 mm × 4 mm, Part No. 7995118-504 (Agilent Technologies Inc.) and column ZORBAX Eclipse XDB-C18 5 μm, 4.6 mm × 250 mm, Part No. 7995118-585 (Agilent Technologies Inc.). The separation process was controlled by Agilent ChemStation, version B.04.02, extended by a spectral module (Agilent Technologies Inc.). The mobile phase consisted of MeOH (HPLC grade, 70%) and H2O (HPLC-Milli-Q Grade, 30%).
The flow rate was 1.0 mL/min, samples were injected in a volume of 20 μL, and the column temperature was 30 °C. A value of 210 nm as the detection wavelength and 270 nm as the monitor wavelength were used. Retention times (tR) were measured in minutes. The dead time of the system (tD) was determined as the retention time of the KI methanol solution. Capacity factors k for individual compounds were calculated according to the formula k = (tR − tD)/tD. Log k, calculated from the capacity factor k, as used as the lipophilicity index converted to log scale.

[4] = Cytotoxicity assay, CellTiter 96 Aqueous One Solution; assay type: cell-based; settings: human; HepG2 cells, 24 h exposure
Method: The human liver hepatocellular carcinoma cell line HepG2 (passage 35–36), purchased from Health Protection Agency Culture Collections (ECACC, Salisbury, UK), was routinely cultured in Minimum Essential Eagle Medium MEM (Sigma-Aldrich) supplemented with 10% fetal bovine serum (PAA Laboratories GmbH, Pasching, Austria), 2mM L-glutamine solution (Sigma-Aldrich), and 1% non-essential amino acid solution (Sigma-Aldrich), in a humidified atmosphere containing 5% CO2 at 37 °C.
For subculturing, the cells were harvested after trypsin/EDTA (Sigma-Aldrich) treatment at 37 °C. To evaluate the cytotoxicity, the HepG2 cells treated with the tested substances were used as experimental groups, whereas untreated HepG2 cells served as control groups.
The HepG2 cells were seeded in a density of 1 × 10^4 cells per well on a 96-well plate. The following day (24 h after seeding), they were treated with tested substances dissolved in DMSO (maximal incubation concentration of DMSO was 1%). […] The treatment was carried out in a humidified atmosphere containing 5% CO2 at 37 °C, in triplicate, for 24 h. The controls representing 100% cell viability, 0% cell viability (the cells treated with 10% DMSO), no-cell controls, and vehiculum controls were incubated in triplicate, simultaneously. After 24 h exposure, the reagent from the kit CellTiter 96® Aqueous One Solution Cell Proliferation Assay (Promega) was added, according to the recommendation of the manufacturer. After 2 h incubation at 37 °C in humidified, 5% CO2 atmosphere, the absorbance was recorded at 490 nm. Inhibitory curves were constructed for each compound, plotting incubation concentrations vs. percentage of absorbance relative to untreated control. The standard toxicological parameter IC50 was calculated by a nonlinear regression analysis of the inhibitory curves using GraphPad Prism software (version 6, GraphPad Software, Inc., La Jolla, CA, USA).

[5] = system: Staphylococcus aureus CCM 4516/08; experiment: Antibacterial microdilution broth method; assay type: cell-based; settings: CCM4516, 24 h, read-out: MIC after 24 h S. aureus
Method: (§1) Microdilution broth method. Antibacterial evaluation was performed against eight bacterial strains from the Czech Collection of Microorganisms (Brno, Czech Republic) (Staphylococcus aureus CCM 4516/08, Escherichia coli CCM 4517, Pseudomonas aeruginosa CCM 1961) or clinical isolates from the Department of Clinical Microbiology, University Hospital and Faculty of Medicine in Hradec Králové, Charles University in Prague, Czech Republic (Staphylococcus aureus H 5996/08-methicilin resistant (MRSA), Staphylococcus epidermidis H 6966/08, Enterococcus sp. J 14365/08, Klebsiella pneumoniae D 11750/08, Klebsiella pneumoniae J 14368/08-ESBL positive). All strains were subcultured on Mueller-Hinton agar (MHA) (Difco/Becton Dickinson, Detroit, MI, USA) at 35 °C and maintained on the same medium at 4 °C. The compounds were dissolved in DMSO, and the antibacterial activity was determined in Mueller-Hinton liquid broth (Difco/Becton Dickinson), and buffered to pH 7.0. Controls consisted of medium and DMSO alone. […] The minimum inhibitory concentration (MIC), defined as the minimum concentration to prevent the visible growth compared to control, was determined after 24 and 48 h of static incubation at 35 °C. The standards were neomycin, bacitracin, penicillin G, ciprofloxacin, and phenoxymethylpenicillin.

[6] = system: Staphylococcus aureus H 5996/08-methicilin resistant (MRSA); experiment: Antibacterial microdilution broth method; assay type: cell-based; settings: 24 h, read-out: MIC after 24 h MRSA
Method: as §1

[7] = system: Staphylococcus epidermidis H 6966/08; experiment: Antibacterial microdilution broth method; assay type: cell-based; settings: read-out: MIC after 24 h S. epidermidis
Method: as §1

[8] = Staphylococcus epidermidis, H6966/08, 24 h

Row | Compound | MIC ([1]; pH 6.6) | MIC [2] | Log k [3] | MIC ([1]; value in parentheses) | IC50 at 24 h [4] | MIC [5] | MIC ([6]; Staphylococcus aureus, MRSA) | MIC [7, 8] | MIC [6] | MIC ([7]; 24 h)
1 | O=C(NCc1ccccc1F)c1nccnc1NCc1ccccc1F [Compound 10a, N-(2-Fluorobenzyl)-3-((2-fluorobenzyl)amino)pyrazine-2-carboxamide] | > 100 µg/mL | > 500 µg/mL | 1.108 | – | – | – | – | – | – | –
2 | Cc1ccccc1CNC(=O)c1nccnc1NCc1ccccc1C [Compound 1a, N-(2-Methylbenzyl)-3-((2-methylbenzyl)amino)pyrazine-2-carboxamide] | 12.5 µg/mL | > 500 µg/mL | 1.459 | 36 µM | > 250 µM | – | – | – | – | –
3 | O=C(NCc1cccc(Cl)c1)c1nccnc1Cl [Compound 6, 3-Chloro-N-(3-chlorobenzyl)pyrazine-2-carboxamide] | 100 µg/mL | 125 µg/mL | 0.060 | – | – | – | – | – | – | –
4 | O=C(NCc1ccc(Cl)cc1)c1nccnc1Cl [Compound 7, 3-Chloro-N-(4-chlorobenzyl)pyrazine-2-carboxamide] | > 100 µg/mL | 500 µg/mL | 0.082 | – | – | – | – | – | – | –
5 | O=C(NCc1ccccc1Cl)c1nccnc1NCc1ccccc1Cl [Compound 5a, N-(2-Chlorobenzyl)-3-((2-chlorobenzyl)amino)pyrazine-2-carboxamide] | > 100 µg/mL | > 500 µg/mL | 1.542 | – | – | – | – | – | – | –
6 | Cc1ccc(CNC(=O)c2nccnc2NCc2ccc(C)cc2)cc1 [Compound 2a, N-(4-Methylbenzyl)-3-((4-methylbenzyl)amino)pyrazine-2-carboxamide] | 25 µg/mL | > 250 µg/mL | 1.517 | 72 µM | – | – | – | – | – | –
7 | O=C(NCc1ccc(Cl)cc1Cl)c1nccnc1Cl [Compound 8, 3-Chloro-N-(2,4-dichlorobenzyl)pyrazine-2-carboxamide] | > 100 µg/mL | 125 µg/mL | 0.375 | – | – | 125 µM (≈ 39.6 µg/mL) | 250 µM (≈ 79.1 µg/mL) | 125 µM (≈ 39.6 µg/mL) | – | –
8 | CC1(C)S[C@@H]2[C@H](NC(=O)COc3ccccc3)C(=O)N2[C@H]1C(=O)O [Penicillin V, phenoxymethylpenicillin, reference compound] | – | – | – | – | – | 0.12 µM (≈ 0.042 µg/mL) | 62.5 µM (≈ 21.9 µg/mL) | 3.9 µM (≈ 1.37 µg/mL) | – | –
9 | COc1ccc(CNC(=O)c2nccnc2Cl)cc1 [Compound 3, 3-Chloro-N-(4-methoxybenzyl)pyrazine-2-carboxamide] | 25 µg/mL | 125 µg/mL | −0.202 | 90 µM | – | 31.2 µM (≈ 8.68 µg/mL) | 125 µM (≈ 34.7 µg/mL) | 250 µM (≈ 69.4 µg/mL) | – | –
10 | CO[C@H]1/C=C/O[C@@]2(C)Oc3c(C)c(O)c4c(O)c(c(/C=N/N5CCN(C)CC5)c(O)c4c3C2=O)NC(=O)/C(C)=C\C=C\[C@H](C)[C@H](O)[C@@H](C)[C@@H](O)[C@@H](C)[C@H](OC(C)=O)[C@@H]1C [RIF, rifampicin, reference compound] | – | 0.78 to 1.56 µg/mL | – | – | – | – | – | – | – | –
11 | O=C(NCc1ccccc1F)c1nccnc1Cl [Compound 10, 3-Chloro-N-(2-fluorobenzyl)pyrazine-2-carboxamide] | > 100 µg/mL | 125 µg/mL | −0.154 | – | – | – | – | – | – | –
12 | O=C(NCc1ccc(F)cc1)c1nccnc1Cl [Compound 11, 3-Chloro-N-(4-fluorobenzyl)pyrazine-2-carboxamide] | > 100 µg/mL | 250 µg/mL | −0.139 | – | – | – | – | – | – | –
13 | O=C(NCc1cccc(Cl)c1)c1nccnc1NCc1cccc(Cl)c1 [Compound 6a, N-(3-Chlorobenzyl)-3-((3-chlorobenzyl)amino)pyrazine-2-carboxamide] | > 100 µg/mL | > 500 µg/mL | 1.515 | – | – | – | – | – | – | –
14 | Cc1ccc(CNC(=O)c2nccnc2Cl)cc1 [Compound 2, 3-Chloro-N-(4-methylbenzyl)pyrazine-2-carboxamide] | > 100 µg/mL | > 500 µg/mL | 0.033 | – | – | 125 µM (≈ 32.7 µg/mL) | > 500 µM | 500 µM (≈ 131 µg/mL) | – | –
15 | neomycin [reference compound] | – | – | – | – | – | – | – | – | 0.98 µM | 7.81 µM
16 | O=C(NCc1ccc(C(F)(F)F)cc1)c1nccnc1NCc1ccc(C(F)(F)F)cc1 [Compound 13a, N-(4-(Trifluoromethyl)benzyl)-3-((4-(trifluoromethyl)benzyl)amino)pyrazine-2-carboxamide] | > 100 µg/mL | > 500 µg/mL | 1.593 | – | – | 62.5 µM (≈ 28.4 µg/mL) | > 500 µM | > 500 µM | – | –
17 | O=C(O)c1cn(C2CC2)c2cc(N3CCNCC3)c(F)cc2c1=O [CPX, ciprofloxacin, reference compound] | – | 0.098 to 0.195 µg/mL | – | – | – | – | – | – | – | –
18 | Cc1ccccc1CNC(=O)c1nccnc1Cl [Compound 1, 3-Chloro-N-(2-methylbenzyl)pyrazine-2-carboxamide] | > 100 µg/mL | 250 µg/mL | 0.009 | – | – | – | – | – | – | –
19 | O=C(NCc1ccc(C(F)(F)F)cc1)c1nccnc1Cl [Compound 13, 3-Chloro-N-(4-(trifluoromethyl)benzyl)pyrazine-2-carboxamide] | > 100 µg/mL | > 500 µg/mL | 0.145 | – | – | 31.2 µM (≈ 9.87 µg/mL) | 500 µM (≈ 158 µg/mL) | 62.5 µM (≈ 19.7 µg/mL) | – | –
20 | O=C(NCc1ccc(Cl)c(Cl)c1)c1nccnc1Cl [Compound 9, 3-Chloro-N-(3,4-dichlorobenzyl)pyrazine-2-carboxamide] | 100 µg/mL | 250 µg/mL | 0.309 | – | – | 62.5 µM (≈ 19.8 µg/mL) | 250 µM (≈ 79.1 µg/mL) | 31.2 µM (≈ 9.89 µg/mL) | – | –
21 | O=C(NCc1ccc(F)cc1)c1nccnc1NCc1ccc(F)cc1 [Compound 11a, N-(4-Fluorobenzyl)-3-((4-fluorobenzyl)amino)pyrazine-2-carboxamide] | > 100 µg/mL | > 500 µg/mL | 1.058 | – | – | – | – | – | – | –
22 | COc1ccc(CNC(=O)c2nccnc2Cl)c(OC)c1 [Compound 4, 3-Chloro-N-(2,4-dimethoxybenzyl)pyrazine-2-carboxamide] | > 100 µg/mL | > 500 µg/mL | −0.095 | – | – | 125 µM (≈ 38.5 µg/mL) | > 500 µM | > 500 µM | – | –
23 | O=C(NCc1cccc(C(F)(F)F)c1)c1nccnc1Cl [Compound 12, 3-Chloro-N-(3-(trifluoromethyl)benzyl)pyrazine-2-carboxamide] | > 100 µg/mL | 125 µg/mL | 0.110 | – | – | – | – | – | – | –
